One block for each molecule: values may come before it.
Key:
[1] = species: Rattus norvegicus; experiment: Intracellular concentration of 1-naphthalenemethylphosphonate (NMPA) in isolated rat hepatocytes was measured after 15 min of incubation.; type: functional; conditions: Hepatocyte
[2] = Half-life period of compound was measured in rat plasma.; type: ADME

half-life [2]: 2 min
SMILES: CCOc1cccc2c1C(=O)OC2OP(=O)(Cc1cccc2ccccc12)OC1OC(=O)c2c(OCC)cccc21 (configuration not stated)
Concentration [1]: 208 µM

half-life [2]: 10 min
SMILES: Cc1ccc2c(c1-c1ccccc1)C(=O)OC2OP(=O)(Cc1cccc2ccccc12)OC1OC(=O)c2c1ccc(C)c2-c1ccccc1 (configuration not stated)
Concentration [1]: 20 µM

half-life [2]: 0.5 min
SMILES: COc1ccc2c(c1)C(OP(=O)(Cc1cccc3ccccc13)OC1OC(=O)c3ccc(OC)cc31)OC2=O (configuration not stated)
Concentration [1]: 428 µM

half-life [2]: 5 min
SMILES: COc1cc2c(c(OC)c1OC)C(=O)OC2OP(=O)(Cc1cccc2ccccc12)OC1OC(=O)c2c1cc(OC)c(OC)c2OC (configuration not stated)
Concentration [1]: 246 µM

The remaining lines, values behind:

SMILES: COc1cc(OC)c2c(c1)C(OP(=O)(Cc1cccc3ccccc13)OC1OC(=O)c3c(OC)cc(OC)cc31)OC2=O (configuration not stated)
Concentration [1]: 359 µM

SMILES: O=C1OC(OP(=O)(Cc2cccc3ccccc23)OC2OC(=O)c3c(Cl)ccc(Cl)c32)c2c(Cl)ccc(Cl)c21 (configuration not stated)
half-life [2]: 0.1 min
Concentration [1]: 78 µM

SMILES: COc1cccc2c1C(OP(=O)(Cc1cccc3ccccc13)OC1OC(=O)c3cccc(OC)c31)OC2=O (configuration not stated)
Concentration [1]: 0 µM

SMILES: COc1cccc2c1C(=O)OC2OP(=O)(Cc1cccc2ccccc12)OC1OC(=O)c2c(OC)cccc21 (configuration not stated)
half-life [2]: 2 min
Concentration [1]: 336 µM

SMILES: O=P(O)(O)Cc1cccc2ccccc12
Concentration [1]: 0 µM

SMILES: O=C1OC(OP(=O)(Cc2cccc3ccccc23)OC2OC(=O)c3ccccc32)c2ccccc21 (configuration not stated)
half-life [2]: 0.5 min
Concentration [1]: 500 µM

Source: ChEMBL document CHEMBL1132125, “Synthesis of phosphonate 3-phthalidyl esters as prodrugs for potential intracellular delivery of phosphonates” (Bioorg Med Chem Lett, 1999)
